Earlier results on 5 compounds are cited in patent publication US20020045168A1, “Computer based modeling system” (priority 2000, published 2002).

Settings in all cases: experimental, native ligand
Data set [1] relates to AMP aptamer (1am0).
Data set [2] has as its system Arg aptamer (1koc).
In data set [3] the test system is citruline aptamer (1kod).
Data set [4] relates to FMN aptamer (1fmn).
Data set [5] has as its system tobramycin aptamer (2tob).

In the case of `Nc1ncnc2c1ncn2[C@@H]1O[C@H](COP(=O)(O)O)[C@@H](O)[C@H]1O` [AMP, adenosine monophosphate], the “Exptl ΔGbind” value in data set [1] is listed as −28.5 kJmol^−1. On to `N=C(N)NCCC[C@H](N)C(=O)O` [Arginine, arginine], for which, in data set [2], the “Exptl ΔGbind” value is listed as −28.5 kJmol^−1. As for `NC(=O)NCCC[C@H](N)C(=O)O` [Citruline, citruline], the “Exptl ΔGbind” value in data set [3] is given as −28.5 kJmol^−1.

In the case of `Cc1cc2nc3c(=O)[nH]c(=O)nc-3n(C[C@H](O)[C@H](O)[C@H](O)COP(=O)(O)O)c2cc1C` [Fmn, flavin mononucleotide], the “Exptl ΔGbind” value in data set [4] is recorded as −30.1 kJmol^−1. Regarding `NC[C@H]1O[C@H](O[C@H]2[C@H](O)[C@@H](O[C@H]3O[C@H](CO)[C@@H](O)[C@H](N)[C@H]3O)[C@H](N)C[C@@H]2N)[C@H](N)C[C@@H]1O` [Tobramycin, tobramycin], the “Exptl ΔGbind” value in data set [5] was −45.2 kJmol^−1.
